In publication PMC7753357, “Population Pharmacokinetics and Model-Based Dosing Optimization of Teicoplanin in Pediatric Patients” (Frontiers in Pharmacology, 2020):
Values joined by “and” are separate entries in the source; they are usually repeats but may differ in a detail not shown here. Identical values can stand only once. Like-named read-outs stand apart in the source and are kept apart here.

Assays:
[1] = Population pharmacokinetic analysis (NONMEM, one-compartment model) in hospitalized children; format: in vivo, human
Description: This was a retrospective PK study performed in two hospitals in China according to the principles of the current Declaration of Helsinki and Good Clinical Practice (Hospital 1: the First Affiliated Hospital of Xi’an Jiaotong University; Hospital 2: the Affiliated Children Hospital of Xi’an Jiaotong University). The protocol was approved by the institutional review board of each study site (No.XJTU1AF2017LSK-28). All patients aged 1 month to 18 years old receiving teicoplanin (Targocid, Sanofi-Aventis) for proven or suspected MRSA infection were selected for the study over 33-month period (March 2017 and November 2019). Children were excluded if a complete teicoplanin dosing history or precise sampling time was not available. The demographic variables with potential impact on the PK of teicoplanin and details of teicoplanin administration (dose and infusion start and stop times) were extracted from medical records retrospectively by a trained research assistant. If serum creatinine (SCr) readings were unavailable around the teicoplanin dosing (±48 h), the closest available SCr reading would be imputed. Creatinine clearance (CLcr) was estimated by Cockcroft formula: CLcr = (140 – age (years)) ×weight (WT, kg) × 0.85 (if female)/0.818 × SCr (μmol/L), instead of Schwartz formula due to the lack of height data in most children ([Cockcroft and Gault, 1976]).
(§1) Teicoplanin was administered at three loading doses of 10 mg/kg every 12 h, followed by 6–10 mg/kg/day. Types of blood samples included therapeutic drug monitoring (TDM) sample, and opportunistic sample. TDM was typically performed within 30 min preceding a dose at steady state. Samples were centrifuged for 10 min. Serum was separated and stored at −80°C until analysis. The laboratory staff were allowed to identify the opportunistic samples with the timings of blood taking documented and store them at −80°C after routine testing and pretreatment. Teicoplanin concentrations were determined with a validated high performance liquid chromatography method. The calibration curve ranged from 2.5 to 100 mg/L, and lower limit of […] (LLOQ) of this assay was 2.5 mg/L. Intra- and inter-day precision values were 3.5 and 6.2%, respectively ([Wang et al., 2015]). For the samples below the LLOQ, concentration values were recorded as LLOQ of 2.5 mg/L.
Population pharmacokinetic (PPK) analysis was performed using NONMEM (version 7.2). A one-compartment PK model with first-order elimination (ADVAN1 TRANS2) was implemented. The concentration-time data for teicoplanin were modeled by first-order conditional estimation with interaction (FOCE-I). We evaluated inter-individual variability using an exponential error model. Residual variability was selected from additive, proportional, exponential, and combined additive and proportional error models according to acceptable standard errors, physiological plausibility of population clearance (CL) and distribution volume (Vd) estimates, improvement of the objective function value (OFV) and good visual representation of standard diagnostic plots. Demographic characteristics (age, gender, WT), renal functions (blood urea nitrogen, SCr, CLcr), biochemical data (total protein, albumin), status of disease (sepsis, endocarditis), and nephrotoxic medications received during teicoplanin therapy were investigated as potential variables on PK parameters. CLcr was calculated by the Cockcroft formula ([Cockcroft and Gault, 1976]). […]

[2] = Serum teicoplanin concentrations (TDM and opportunistic samples, HPLC); format: in vivo, human; conditions: SD
Procedure: as §1

[3] = Nephrotoxicity and adverse events in patients; format: in vivo, human; conditions: all after the last sample was collected
[4] = cited from earlier work
Description: Supplement table1.docx, table 1: TABLE S1 Pharmacokinetic Study of teicoplanin in pediatric patients. | column: Clearance (CL) , L/h; Volume of distribution (Vd) , L || Teicoplanin is a glycopeptide antibiotic with activity against methicillin-resistant Staphylococcus aureus (MRSA) ([Traina and Bonati, 1984]). […] Teicoplanin trough concentration (C min) is closely associated with clinical efficacy. […] Due to widespread systemic inflammation, patients may often have an ARC in PICU patients ([Van Der Heggen et al., 2019]), and increased volume ... || (+ 2 further places)

[5] = cited from earlier work; remark: listed apart in the source
Description: Teicoplanin is a glycopeptide antibiotic with activity against methicillin-resistant Staphylococcus aureus (MRSA) ([Traina and Bonati, 1984]). […] Teicoplanin trough concentration (C min) is closely associated with clinical efficacy. For the moderate (such as respiratory tract infections, urinary tract infections and skin and soft-tissue infections) and severe infection (such as sepsis, infective endocarditis, bone an ... || There are large differences in the optimal dosage regimens provided by the two methods (Table 3). Taken together, optimal dosage regimens based on the C min targets in our study are recommended, which are three loading doses of 10 mg/kg every 12 h, followed by a maintenance dose of 12 mg/kg/day for C min of > 10 mg/L and three loading doses of 13 mg/kg every 12 h, followed by a maintenance dose of 16 mg/kg/day for C min of > 15 mg/L. The reasons are as follows: 1) The maintenance dose based on the C min targets are higher than that based PK/PD targets. In other words, maintenance dose based on ...

[6] = ref Lukas et al., 2004; cited from earlier work
Description: (§2) Teicoplanin is a glycopeptide antibiotic with activity against methicillin-resistant Staphylococcus aureus (MRSA) ([Traina and Bonati, 1984]). […] Teicoplanin trough concentration (C min) is closely associated with clinical efficacy. For the moderate (such as respiratory tract infections, urinary tract infections and skin and soft-tissue infections) and severe infection (such as sepsis, infective endocarditis, bone an ...

albumin = conditions: ref Lukas et al., 2004; cited from earlier work
Description: as §2

[7] = ref Svetitsky et al., 2009; cited from earlier work
Procedure: There are large differences in the optimal dosage regimens provided by the two methods (Table 3). Taken together, optimal dosage regimens based on the C min targets in our study are recommended, which are three loading doses of 10 mg/kg every 12 h, followed by a maintenance dose of 12 mg/kg/day for C min of > 10 mg/L and three loading doses of 13 mg/kg every 12 h, followed by a maintenance dose of 16 mg/kg/day for C min of > 15 mg/L. The reasons are as follows: 1) The maintenance dose based on the C min targets are higher than that based PK/PD targets. In other words, maintenance dose based on ...

[8] = most recent study in Chinese children, ref Gao et al., 2020

Teicoplanin
Vd, mean of 1,000 bootstrap replicates ([1]; bootstrap): 1.77 L
CL, mean of 1,000 bootstrap replicates ([1]; bootstrap success rate 96.5%): 0.0718 L/h
Vd, final model estimate ([1]; population PK, one-compartment, Vd=1.39×θ3(WT/16.71)): 1.39 L
Estimate of Vd per kg ([1]; this study): 0.15 L/kg
Typical population value of CL per kg ([1]; this study): 0.233 mL/min/kg
Teicoplanin concentration, mean ± standard deviation ([2]; Hospital 1, n=13, 21 samplings): 9.3 ± 10.1 mg/L
Teicoplanin concentration, mean ± standard deviation ([2]; Hospital 2, n=212, 304 samplings): 9.1 ± 8.9 mg/L
Teicoplanin concentration, mean ± standard deviation ([2]; model evaluation data, n = 66, 89 samplings): 9.6 ± 5.6 mg/L
Teicoplanin concentration, mean ± standard deviation ([2]; model-building data, n = 159, 236 samplings, HPLC, LLOQ 2.5 mg/L): 8.6 ± 12.1 mg/L
Children who developed nephrotoxicity during hospitalization [3]: Nine
Mean C min ([4]; 24 h after the first dose, ref Sanchez et al., 1999): 4800 ng/mL
Mean C min ([4]; 72 h after the first dose, ref Sanchez et al., 1999): 5700 ng/mL
Mean C min ([4]; 168 h after the first dose, ref Sanchez et al., 1999): 5900 ng/mL
CL ([4]; PICU Caucasians, ref Aarons et al., 1998, Lukas et al., 2004, Ramos-Martin et al., 2014, Reed et al., 1997, Sanchez et al., 1999, Terragna et al., 1988, Zhao et al., 2015): 0.5 to 1.23 mL/min/kg
Volume of distribution (Vd) ([4]; children, n=39, England, FPIA, ref Ramos-Martin (2014)): 4.138 L
Q ([4]; children, n=136, China, population PK, ref Gao (2020)): 0.23 L/h
Vd in other studies ([4]; children, ref Supplementary Table S1): 0.2 to 1.02 L/kg
CL estimate [4, 8]: 0.217 mL/min/kg
Vd [4, 8]: 1.85 L/kg
CL ([4]; non-PICU Caucasians, ref Aarons et al., 1998, Lukas et al., 2004, Ramos-Martin et al., 2014, Reed et al., 1997, Sanchez et al., 1999, Terragna et al., 1988, Zhao et al., 2015): 0.25 to 0.4 mL/min/kg
Proportion of children failing to achieve the target C min ([4]; previous clinical studies, ref Sanchez et al., 1999, Strenger et al., 2013, Zhao et al., 2015): 48–89%
CL in children ([4]; ref Aarons et al., 1998, Lukas et al., 2004, Ramos-Martin et al., 2014, Reed et al., 1997, Sanchez et al., 1999, Terragna et al., 1988, Zhao et al., 2015): 0.25 to 1.23 mL/min/kg
Overall mean C min ([4]; ref Lukas et al., 2004): 9000 ng/mL
Vd ([4]; ref Ramos-Martin et al., 2014): 0.2 L/kg
C min achieved with current maintenance doses in another study ([4]; ref Sanchez et al., 1999): 4800 to 5900 ng/mL
CL ([4]; two studies in patients admitted to the PICU, ref Reed et al., 1997, Sanchez et al., 1999): 0.75 mL/min/kg and 0.5 mL/min/kg
Elimination half-life compared with vancomycin ([5]; ref Kasai et al., 2018): longer elimination half-life than vancomycin
Linearity of PK ([5]; ref Rowland, 1990): linear PK
CL in adults ([5]; seven out of ten of the CL reported, ref Byrne et al., 2018, Cazaubon et al., 2017, Kasai et al., Lamont et al., 2005, Soy et al., 2006, Yamada et al., 2012, Yu et al., 1995): lower than 0.01 L/h/kg
Hydrophilicity of the marketed drug [6]: hydrophilic
Bound to albumin in plasma (albumin): > 90%
Adverse events compared with vancomycin [7]: lower adverse event compared with vancomycin
